Measured values published in BindingDB's records for doi:10.1021/jm0496077 (University of Southern California, 2005).

Target: Integrase (Human immunodeficiency virus 1)
Test: Concentration required to inhibit catalytic activity of human immuno deficiency virus type 1 integrase

IC50: < 1000 nM
Compound: O=C(/C=C(\O)c1ccc(Cc2ccc(F)cc2)o1)c1cc[nH]c1
